Data set [1] can be described thus: Gravimetric Vapour Sorption (GVS). The data set is classed as physicochemical. The conditions noted are these: at 80% RH. How it is done:
Gravimetric Vapour Sorption (GVS) profiles were measured using a Surface Measurements Systems Dynamic Vapour Sorption DVS-1, or DVS Advantage GVS instruments. The solid sample ca. 1-5 mg was placed into a glass or wire mesh vessel and the weight of the sample was recorded during a dual cycle step method (40 to 90 to 0 to 90 to 0% relative humidity (RH), in steps of 10% RH).

Data set [2] has as its system guinea pig trachea. The data set is described as follows: Bronchodilator activity in the guinea pig isolated tracheal ring preparation. Particulars: methacholine 1 μM, 60 min, mean±s.e.mean. How it is done:
Guinea pigs (300-500 g) were killed by cervical dislocation and the trachea was isolated. The trachea was cut into segments 2-3 cartilage rings in width and suspended in 10 ml organ baths in modified Krebs' solution (mM; NaCl, 90; NaHCO3, 45; KCl, 5; MgSO4.7H2O, 0.5; Na2HPO4.2H2O, 1; CaCl2, 2.25; glucose, 10; pH 7.4 gassed with 5% CO2, 95% O2 at 37° C.). The tracheal rings were attached to an isometric force transducer for the measurement of isometric tension. The tissues were washed and a force of 1 g was applied to each tissue. The rings were contracted with methacholine (1 μM). Once the contraction had reached a plateau, vehicle (0.01% DMSO in distilled H2O), indacaterol (10 nM), N-[2-(Diethylamino)ethyl]-N-(2-{[2-(4-hydroxy-2-oxo-2,3-dihydro-1,3-benzothiazol-7-yl)ethyl]amino}ethyl)-3-[2-(1-naphthyl)ethoxy]propanamide dihydrobromide (10 nM), N-Cyclohexyl-N^3-[2-(3-fluorophenyl)ethyl]-N-(2-{[2-(4-hydroxy-2-oxo-2,3-dihydro-1,3-benzothiazol-7-yl)ethyl]amino}ethyl)-(3-alaninamide di-D-mandelate salt (1 nM), (R)-3-(1-Phenyl-cycloheptanecarbonyloxy)-1-(pyridin-2-ylcarbamoylmethyl)-1-azonia-bicyclo[2.2.2]octane bromide (1 nM), a combination of (R)-3-(1-Phenyl-cycloheptanecarbonyloxy)-1-(pyridin-2-ylcarbamoylmethyl)-1-azonia-bicyclo[2.2.2]octane bromide (1 nM) and indacaterol (10 nM), a combination of N-[2-(Diethylamino)ethyl]-N-(2-{[2-(4-hydroxy-2-oxo-2,3-dihydro-1,3-benzothiazol-7-yl)ethyl]amino}ethyl)-3-[2-(1-naphthyl)ethoxy]propanamide dihydrobromide (10 nM) and (R)-3-(1-Phenyl-cycloheptanecarbonyloxy)-1-(pyridin-2-ylcarbamoylmethyl)-1-azonia-bicyclo[2.2.2]octane bromide (1 nM) and, or a combination of N-Cyclohexyl-N^3-[2-(3-fluorophenyl)ethyl]-N-(2-{[2-(4-hydroxy-2-oxo-2,3-dihydro-1,3-benzothiazol-7-yl)ethyl]amino}ethyl)-β-alaninamide di-D-mandelate salt (1 nM) and (R)-3-(1-Phenyl-cycloheptanecarbonyloxy)-1-(pyridin-2-ylcarbamoylmethyl)-1-azonia-bicyclo[2.2.2]octane bromide (1 nM) was added and the tissue left for 60 min. The tension was measured in each ring at 60 min following compound addition and was expressed as a % relaxation of the constriction to methacholine (1 μM) (mean±s.e.mean). Data were collected using the Chart 4 software (ADInstruments, Charlgrove, UK).

In data set [3] the target is T1, human muscarinic receptors (M3) (Homo sapiens, UniProt P20309).
T1 construct: purchased
T1 sequence (P20309 whole entry): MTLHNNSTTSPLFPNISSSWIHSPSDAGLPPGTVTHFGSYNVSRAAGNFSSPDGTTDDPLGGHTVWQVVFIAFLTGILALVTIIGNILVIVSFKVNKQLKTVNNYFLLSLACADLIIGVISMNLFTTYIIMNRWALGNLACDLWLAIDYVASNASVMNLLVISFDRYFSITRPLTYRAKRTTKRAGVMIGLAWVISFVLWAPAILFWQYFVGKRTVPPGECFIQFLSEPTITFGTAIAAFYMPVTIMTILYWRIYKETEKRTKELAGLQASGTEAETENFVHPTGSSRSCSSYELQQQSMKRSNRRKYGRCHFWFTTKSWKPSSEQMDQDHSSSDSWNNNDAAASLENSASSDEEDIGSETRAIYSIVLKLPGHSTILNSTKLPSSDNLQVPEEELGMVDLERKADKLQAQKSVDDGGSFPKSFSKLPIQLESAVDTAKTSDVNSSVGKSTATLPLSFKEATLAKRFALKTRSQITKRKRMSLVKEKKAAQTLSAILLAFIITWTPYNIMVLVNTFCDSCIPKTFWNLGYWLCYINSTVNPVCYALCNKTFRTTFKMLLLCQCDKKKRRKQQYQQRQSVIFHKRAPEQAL
In words: Muscarinic Receptor Radioligand Binding Assay ([3H]-NMS). The conditions noted are these: human M3 membranes. How it is done:
The inhibitory effects of compounds of the muscarinic antagonists were determined by a Muscarinic Receptor Radioligand Binding Assay. Radioligand binding studies utilising [^3H]-N-methyl scopolamine ([^3H]-NMS) and commercially available cell membranes expressing the human muscarinic receptors (M2 or M3) were used to assess the affinity of muscarinic antagonists for M2 and M3 receptors. Membranes in TRIS buffer were incubated in 96-well plates with [^3H]-NMS and M3 antagonist at various concentrations for 3 hours. Membranes and bound radioligand were then harvested by filtration and allowed to dry overnight. Scintillation fluid was then added and the bound radioligand counted using a Can berra Packard Topcount scintillation counter

Setting [4] is: class symbols of M3 Binding IC50, read-out: M3 pIC50 (converted).

Where “and” joins values, the source holds several entries; their conditions need not be identical. Equal values may be shown once. Read-outs that look alike come from different tables or passages of the source. Where only a bound is given, the exact number is not on record here.

These results are taken from patent publication US20110190309A1, “PHARMACEUTICAL PRODUCT COMPRISING A […] RECEPTOR ANTAGONIST AND A Beta2-ADRENOCEPTOR AGONIST” (priority 2008, published 2011).

As for `O=C(C[N+]12CCC(CC1)[C@@H](OC(=O)C1(c3ccccc3)CCCCCC1)C2)Nc1cnccn1` [Example 5, (R)-3-(1-Phenyl-cycloheptanecarbonyloxy)-1-(pyrazin-2-ylcarbamoylmethyl)-1-azonia-bicyclo[2.2.2]octane 1-hydroxy-naphthalene-2-sulfonate], the GVS weight increase in data set [1] was about 0.3 % w/w.

In the case of `CCc1cc2c(cc1CC)CC(NC[C@H](O)c1ccc(O)c3[nH]c(=O)ccc13)C2` [indacaterol, reference compound], in data set [2] (10 nM), the “percentage relaxation of the constriction to methacholine” value (shortened to “percentage relaxation”) is 24±6.9%.

Regarding `O=C(C[N+]12CCC(CC1)[C@@H](OC(=O)C1(c3ccccc3)CCCCCC1)C2)Nc1ccccn1.[Br-]` [Example 4, (R)-3-(1-Phenyl-cycloheptanecarbonyloxy)-1-(pyridin-2-ylcarbamoylmethyl)-1-azonia-bicyclo[2.2.2]octane bromide], the “percentage relaxation” value in data set [2] (1 nM, listed as Compound Z) is 9±9.4%; in data set [2] (1 nM, listed as compound Z), 9±4.3% and 5±1.8%. For the same compound, the GVS weight increase result in data set [1] is listed as “negligible”.

As to `O=C(C[N+]12CCC(CC1)[C@@H](OC(=O)C1(c3ccccc3)CCCCCC1)C2)Nc1cccnn1` [Example 13, (R)-3-(1-Phenyl-cycloheptanecarbonyloxy)-1-(pyridazin-3-ylcarbamoylmethyl)-1-azonia-bicyclo[2.2.2]octane bromide], the IC50 in data set [3] (setting [4]) was under 2 nM.

With `O=C(C[N+]12CCC(CC1)[C@@H](OC(=O)C1(c3ccccc3)CCCCCC1)C2)Nc1cnccn1.[Br-]` [Example 1, (R)-3-(1-Phenyl-cycloheptanecarbonyloxy)-1-(pyrazin-2-ylcarbamoylmethyl)-1-azonia-bicyclo[2.2.2]octane bromide], in data set [3] (read-out: M3 pIC50 (converted)), the IC50 was 0.0794 nM. The GVS weight increase in data set [1] turned out to be 3 % w/w.

For `O=C(C[N+]12CCC(CC1)[C@@H](OC(=O)C1(c3ccccc3)CCCCCC1)C2)Nc1ccc(F)cn1` [Example 10, (R)-1-[(5-Fluoro-pyridin-2-ylcarbamoyl)-methyl]-3-(1-phenyl-cycloheptanecarbonyloxy)-1-azonia-bicyclo[2.2.2]octane chloride], in data set [3] (setting [4]), the IC50 is under 2 nM.

Take `O=C(C[N+]12CCC(CC1)[C@@H](OC(=O)C1(c3ccccc3)CCCCCC1)C2)Nc1ccccn1` [Example 14, (R)-3-(1-Phenyl-cycloheptanecarbonyloxy)-1-(pyridin-2-ylcarbamoylmethyl)-1-azonia-bicyclo[2.2.2]octane hemi-naphthalene-1,5-disulfonate]: the GVS weight increase in data set [1] was determined as 1 % w/w.

Regarding `O=C(C[N+]12CCC(CC1)[C@@H](OC(=O)C1(c3cccc(F)c3)CCCCCC1)C2)Nc1cnccn1` [Example 8, (R)-3-[1-(3-Fluoro-phenyl)-cycloheptanecarbonyloxy]-1-(pyrazin-2-ylcarbamoylmethyl)-1-azonia-bicyclo[2.2.2]octane bromide], the IC50 in data set [3] (setting [4]) is under 2 nM.

Take `O=C(C[N+]12CCC(CC1)[C@@H](OC(=O)C1(c3ccccc3)CCCCCC1)C2)Nc1cnccn1` [Example 7, (R)-3-(1-Phenyl-cycloheptanecarbonyloxy)-1-(pyrazin-2-ylcarbamoylmethyl)-1-azonia-bicyclo[2.2.2]octane hemi-naphthalene-1,5-disulfonate]: the GVS weight increase in data set [1] was 1.6 % w/w.

For `Cc1cc(NC(=O)C[N+]23CCC(CC2)[C@@H](OC(=O)C2(c4ccccc4)CCCCCC2)C3)ccn1` [Example 11, (R)-1-[(2-Methyl-pyridin-4-ylcarbamoyl)-methyl]-3-(1-phenyl-cycloheptanecarbonyloxy)-1-azonia-bicyclo[2.2.2]octane chloride], the IC50 in data set [3] (setting [4]) is under 2 nM.

In the case of `O=C(C[N+]12CCC(CC1)[C@@H](OC(=O)C1(c3ccccc3)CCCCCC1)C2)Nc1cccnc1` [Example 12, (R)-3-(1-Phenyl-cycloheptanecarbonyloxy)-1-(pyridin-3-ylcarbamoylmethyl)-1-azonia-bicyclo[2.2.2]octane chloride], in data set [3] (setting [4]), the IC50 was under 2 nM.

For `O=C(C[N+]12CCC(CC1)[C@@H](OC(=O)C1(c3ccccc3)CCCCCC1)C2)Nc1ccccn1.[Cl-]` [Example 3, (R)-3-(1-Phenyl-cycloheptanecarbonyloxy)-1-(pyridin-2-ylcarbamoylmethyl)-1-azonia-bicyclo[2.2.2]octane chloride], the IC50 in data set [3] (setting [4]) is under 2 nM. Also, the GVS weight increase result in data set [1] was “negligible”.

Regarding `O=C(C[N+]12CCC(CC1)[C@@H](OC(=O)C1(c3ccccc3)CCCCCC1)C2)Nc1cnccn1` [Example 6, (R)-3-(1-Phenyl-cycloheptanecarbonyloxy)-1-(pyrazin-2-ylcarbamoylmethyl)-1-azonia-bicyclo[2.2.2]octane 2,5-dichloro-benzenesulfonate], the GVS weight increase in data set [1] is recorded as about 0.2 % w/w.

Consider `O=C(C[N+]12CCC(CC1)[C@@H](OC(=O)C1(c3cccc(F)c3)CCCCCC1)C2)Nc1ccon1` [Example 9, (R)-3-[1-(3-Fluoro-phenyl)-cycloheptanecarbonyloxy]-1-(isoxazol-3-ylcarbamoylmethyl)-1-azonia-bicyclo[2.2.2]octane bromide], for which, in data set [3] (setting [4]), the IC50 is under 2 nM.

Take “N-Cyclohexyl-N^3-[2-(3-fluorophenyl)ethyl]-N-(2-{[2-(4-hydroxy-2-oxo-2,3-dihydro-1,3-benzothiazol-7-yl)ethyl]amino}ethyl)-β-alaninamide di-D-mandelate [compound W]”: the “percentage relaxation” value in data set [2] (1 nM) came to 23±10%.

`O=C(C[N+]12CCC(CC1)[C@@H](OC(=O)C1(c3ccccc3)CCCCCC1)C2)Nc1cnccn1.[Cl-]` [Example 2, (R)-3-(1-Phenyl-cycloheptanecarbonyloxy)-1-(pyrazin-2-ylcarbamoylmethyl)-1-azonia-bicyclo[2.2.2]octane chloride] yielded a GVS weight increase in data set [1] of 9 % w/w.
